Laboratory results reported in US8536202B2, “Triazole-substituted anthranilamides as pesticides” (Bayer Cropscience AG, priority 2010, dated 2013).
Read-outs that look alike come from different tables or passages of the source.

What was measured:
[1] = log P determination by HPLC on reversed-phase columns (EEC Directive 79/831 Annex V.A8); assay type: physicochemical; details: pH 2.7
How it was run: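 log P from reversed-phase LC-MS retention at pH 2.7, 0.1% formic acid water/acetonitrile gradient 10–95% acetonitrile. Calibrated against C3–C16 unbranched alkan-2-ones, interpolating linearly between adjacent alkanones.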

[2] = test system: caterpillars of the armyworm (Spodoptera frugiperda); assay: Spodoptera frugiperda test (SPODFR spray treatment); assay type: in vivo; details: 168 h; for pest or weed control at 100 g/ha: read-out: activity in %
How it was run: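 Maize leaf discs sprayed with compound diluted in emulsifier-containing water (acetone/DMF solvent, alkylaryl polyglycol ether emulsifier), dried, then infested with armyworm caterpillars. Kill scored after 7 days as % mortality, 100% = all caterpillars dead, 0% = none.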

[3] = test system: larvae of the mustard beetle (Phaedon cochleariae); assay: Phaedon test (PHAECO spray treatment); assay type: in vivo; details: 168 h, read-out: activity in %
How it was run: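 Compound dissolved in acetone/dimethylformamide with alkylaryl polyglycol ether emulsifier, then diluted with emulsifier-containing water to test concentration for spray treatment of Phaedon cochleariae larvae. Activity scored after 7 days as % larvae killed (100% = all dead, 0% = none).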

[4] = reversed-phase C18 HPLC column, HPLC on reversed-phase columns (C 18), EEC Directive 79/831 Annex V.A8, read-out: logP
[5] = HPLC on reversed-phase columns (C 18), EEC Directive 79/831 Annex V.A8, read-out: logP

| Structure (SMILES) | chromatographic logP [1, 4] | pest or weed control at 100 g/ha ([2]; 100 g/ha, after 7 days) | pest or weed control at 100 g/ha ([3]; 100 g/ha, after 7 days) | chromatographic logP [1] | pest or weed control at 20 g/ha ([2]; after 7 days) | chromatographic logP [1, 5] | pest or weed control at 100 g/ha [2] | pest or weed control at 100 g/ha [3] |
| --- | --- | --- | --- | --- | --- | --- | --- | --- |
| Cc1cc(I)cc(C(=O)NC(C)C2CC2)c1NC(=O)c1cc(Cn2ncc(C(F)(C(F)(F)F)C(F)(F)F)n2)nn1-c1ncccc1Cl (stereo not drawn) [Example 266] | 4.86 | 100% | 100% |  |  |  |  |  |
| Cc1cc(I)cc(C(=O)NC(C)C)c1NC(=O)c1cc(Cn2ncc(C(F)(C(F)(F)F)C(F)(F)F)n2)nn1-c1ncccc1Cl [Example 267] |  | 100% | 100% | 4.51 |  |  |  |  |
| Cc1cc(I)cc(C(=O)NC(C)(C)C)c1NC(=O)c1cc(Cn2ncc(C(F)(C(F)(F)F)C(F)(F)F)n2)nn1-c1ncccc1Cl [Example 268] | 4.9 | 100% | 100% |  |  |  |  |  |
| Cc1cc(I)cc(C(=O)NCC2CC2)c1NC(=O)c1cc(Cn2ncc(C(F)(C(F)(F)F)C(F)(F)F)n2)nn1-c1ncccc1Cl [Example 269] | 4.58 | 100% | 100% |  |  |  |  |  |
| CSC[C@H](C)NC(=O)c1cc(I)cc(C)c1NC(=O)c1cc(Cn2ncc(C(F)(C(F)(F)F)C(F)(F)F)n2)nn1-c1ncccc1Cl [Example 270] | 4.73 |  | 100% |  | 100% |  |  |  |
| Cc1cc(I)cc(C(=O)NC2CC2)c1NC(=O)c1cc(Cn2ncc(C(F)(C(F)(F)F)C(F)(F)F)n2)nn1-c1ncccc1Cl [Example 272] |  |  | 100% | 4.26 | 100% |  |  |  |
| CC(NC(=O)c1cc(Cl)cc(Cl)c1NC(=O)c1cc(Cn2ncc(C(F)(C(F)(F)F)C(F)(F)F)n2)nn1-c1ncccc1Cl)C1CC1 (stereo not drawn) [Example 274] | 4.49 |  | 100% |  | 100% |  |  |  |
| CC(C)NC(=O)c1cc(Cl)cc(Cl)c1NC(=O)c1cc(Cn2ncc(C(F)(C(F)(F)F)C(F)(F)F)n2)nn1-c1ncccc1Cl [Example 275] |  | 100% | 100% | 4.17 |  |  |  |  |
| CC(C)(C)NC(=O)c1cc(Cl)cc(Cl)c1NC(=O)c1cc(Cn2ncc(C(F)(C(F)(F)F)C(F)(F)F)n2)nn1-c1ncccc1Cl [Example 276] | 4.53 | 100% | 100% |  |  |  |  |  |
| O=C(NCC1CC1)c1cc(Cl)cc(Cl)c1NC(=O)c1cc(Cn2ncc(C(F)(C(F)(F)F)C(F)(F)F)n2)nn1-c1ncccc1Cl [Example 277] | 4.23 | 100% | 100% |  |  |  |  |  |
| CSC[C@H](C)NC(=O)c1cc(Cl)cc(Cl)c1NC(=O)c1cc(Cn2ncc(C(F)(C(F)(F)F)C(F)(F)F)n2)nn1-c1ncccc1Cl [Example 278] | 4.38 | 100% | 100% |  |  |  |  |  |
| NC(=O)c1cc(Cl)cc(Cl)c1NC(=O)c1cc(Cn2ncc(C(F)(C(F)(F)F)C(F)(F)F)n2)nn1-c1ncccc1Cl [Example 279] |  | 100% | 100% | 3.46 |  |  |  |  |
| O=C(NC1CC1)c1cc(Cl)cc(Cl)c1NC(=O)c1cc(Cn2ncc(C(F)(C(F)(F)F)C(F)(F)F)n2)nn1-c1ncccc1Cl [Example 280] |  | 100% | 100% | 3.92 |  |  |  |  |
| Cc1cc(C#N)cc(C(=O)NC2(C3CC3)CC2)c1NC(=O)c1cc(Cn2ncc(C(F)(C(F)(F)F)C(F)(F)F)n2)nn1-c1ncccc1Cl [Example 283] | 4.12 | 100% | 100% |  |  |  |  |  |
| Cc1cc(C#N)cc(C(=O)NC(C)(C)C)c1NC(=O)c1cc(Cn2ncc(C(F)(F)F)n2)nn1-c1ccccc1Cl [Example 285] | 3.93 | 100% | 100% |  |  |  |  |  |
| CNC(=O)c1cc(Cl)cc(C)c1NC(=O)c1cc(Cn2ncc(C(F)(F)F)n2)nn1-c1ccccc1Cl [Example 287] | 3.45 | 100% | 100% |  |  |  |  |  |

| Structure (SMILES) | chromatographic logP [1, 4] | pest or weed control at 100 g/ha ([2]; 100 g/ha, after 7 days) | pest or weed control at 100 g/ha ([3]; 100 g/ha, after 7 days) | chromatographic logP [1] | pest or weed control at 20 g/ha ([2]; after 7 days) | chromatographic logP [1, 5] | pest or weed control at 100 g/ha [2] | pest or weed control at 100 g/ha [3] |
| --- | --- | --- | --- | --- | --- | --- | --- | --- |
| Cc1cc(C#N)cc(C(=O)NC(C)C)c1NC(=O)c1cc(Cn2cc(C(F)(F)F)nn2)nn1-c1ccccc1Cl [Example 290] | 3.17 | 100% | 100% |  |  |  |  |  |
| CNC(=O)c1cc(C#N)cc(C)c1NC(=O)c1cc(Cn2cc(C(F)(C(F)(F)F)C(F)(F)F)nn2)nn1-c1ccccc1Cl [Example 295] | 3.46 | 100% | 100% |  |  |  |  |  |
| Cc1cc(C#N)cc(C(=O)NC2CC2)c1NC(=O)c1cc(Cn2cc(C(F)(F)F)nn2)nn1-c1ccccc1Cl [Example 296] | 2.93 | 100% | 100% |  |  |  |  |  |
| CNC(=O)c1cc(C#N)cc(C)c1NC(=O)c1cc(Cn2ncc(C(F)(C(F)(F)F)C(F)(F)F)n2)nn1-c1ccccc1Cl [Example 297] | 3.88 | 100% | 100% |  |  |  |  |  |
| Cc1cc(I)cc(C(=O)NC2CC2)c1NC(=O)c1cc(Cn2cc(C(F)(F)C(F)(F)F)nn2)nn1-c1ncccc1Cl [Example 310] |  | 100% | 100% | 3.49 |  |  |  |  |
| CCNC(=O)c1cc(I)cc(C)c1NC(=O)c1cc(Cn2cc(C(F)(F)C(F)(F)F)nn2)nn1-c1ncccc1Cl [Example 311] |  | 100% | 100% | 3.49 |  |  |  |  |
| Cc1cc(I)cc(C(=O)NC(C)C)c1NC(=O)c1cc(Cn2cc(C(F)(F)C(F)(F)C(F)(F)F)nn2)nn1-c1ncccc1Cl [Example 322] |  |  |  |  |  | 4.07 | 100% | 100% |
| Cc1cc(I)cc(C(=O)NC2CC2)c1NC(=O)c1cc(Cn2cc(C(F)(F)C(F)(F)C(F)(F)F)nn2)nn1-c1ncccc1Cl [Example 323] |  |  |  |  |  | 3.82 | 100% | 100% |
| Cc1cc(I)cc(C(=O)NCC2CC2)c1NC(=O)c1cc(Cn2cc(C(F)(F)C(F)(F)C(F)(F)F)nn2)nn1-c1ncccc1Cl [Example 333] |  |  |  |  |  | 4.13 | 100% | 100% |
| Cc1cc(I)cc(C(=O)NC(C)(C)C)c1NC(=O)c1cc(Cn2cc(C(F)(F)C(F)(F)C(F)(F)F)nn2)nn1-c1ncccc1Cl [Example 334] |  |  |  |  |  | 4.42 | 100% | 100% |
| CCNC(=O)c1cc(I)cc(C)c1NC(=O)c1cc(Cn2cc(C(F)(F)C(F)(F)C(F)(F)F)nn2)nn1-c1ncccc1Cl [Example 335] |  |  |  |  |  | 3.83 | 100% | 100% |
| Cc1cc(I)cc(C(=O)NC(C)C2CC2)c1NC(=O)c1cc(Cn2cc(C(F)(F)C(F)(F)C(F)(F)F)nn2)nn1-c1ncccc1Cl (stereo not drawn) [Example 336] |  |  |  |  |  | 4.36 | 100% | 100% |
| Cc1cc(I)cc(C(=O)NCC2CC2)c1NC(=O)c1cc(Cn2ncc(C(F)(F)C(F)(F)F)n2)nn1-c1ncccc1Cl [Example 345] |  | 100% | 100% | 4.22 |  |  |  |  |
| Cc1cc(I)cc(C(=O)NC(C)C)c1NC(=O)c1cc(Cn2ncc(C(F)(F)C(F)(F)F)n2)nn1-c1ncccc1Cl [Example 346] |  | 100% | 100% | 4.15 |  |  |  |  |
| Cc1cc(I)cc(C(=O)NC2CC2)c1NC(=O)c1cc(Cn2ncc(C(F)(F)C(F)(F)F)n2)nn1-c1ncccc1Cl [Example 347] |  | 100% | 100% | 3.86 |  |  |  |  |
| Cc1cc(Cl)cc(C(=O)NC(C)C2CC2)c1NC(=O)c1cc(Cn2ncc(C(F)(F)C(F)(F)F)n2)nn1-c1ncccc1Cl (stereo not drawn) [Example 351] |  | 100% | 100% | 4.21 |  |  |  |  |
